Columns and labels:
PLA2 of NK venom = assay: Inhibition of PLA2 activity of NK venom (indirect hemolytic assay on agarose-erythrocyte-egg yolk gel plates); assay type: biochemical, Naja naja kaouthia; conditions: NK venom 3.4 µg (one MIHD); pre-incubated 1 h at 37 °C; mean ± S.E.M. (n = 2)
Experimental: (§1) PLA2 activity in CR and NK venoms was measured using an indirect hemolytic assay on agarose-erythrocyte-egg yolk gel plates to define the minimum indirect hemolytic dose (MIHD), the dose of venom that induced a hemolysis halo of 20 mm diameter after incubation for 20 h at 37 °C. The inhibition of PLA2 activity by MSKE and its isolated phenolic principles was determined against one MIHD of CR and NK venoms. Test solutions and the venoms (0.05 mL each) were pre-incubated for 1 h at 37 °C. After centrifugation at 10,000 rpm for 10 min, the supernatant (20 µL) was tested for PLA2 activity. The anti-PLA2 potential of the extract and its phenolic principles was presented as percent inhibition of the enzymatic activity versus dose, in which 100% inhibition should produce no clear zone. ED50, the effective dose that PLA2 activity of the venoms was reduced by 50%, was calculated.

LAAO of NK venom = assay: Inhibition of LAAO activity of NK venom (enzyme-coupled assay); assay type: biochemical, Naja naja kaouthia; conditions: NK venom 50 µg; pre-incubated 1 h at 37 °C; mean ± S.E.M. (n = 2)
Experimental: (§2) LAAO activity of CR and NK venoms was determined by using an enzyme-coupled assay. The assay mixture contained 0.025 mL 0.014% peroxidase and 0.2 M triethanolamine buffer (1 mL, pH 7.6) that contained 0.1% L-leucine and 0.0065% o-dianisidine. After incubation at 25 °C for 3 min, 0.1 mL CR or NK venom in PBS (1 mg/mL) was added, and an increase in absorbance at 436 nm (Shimadzu UV-VIS spectrophotometer UV-160A) was measured against blank. Enzymatic activity was calculated from the linear portion of the time–absorbance plot, where one unit of enzymatic activity was defined as the amount of enzyme that caused an increase of 0.001 absorbance units per minute. The percent inhibition of LAAO activity by MSKE and its isolated phenolic principles was evaluated by pre-incubating CR or NK venom (0.1 mL, 1 mg/mL) with test sample in sterile water for injection (SWI) (0.1 mL) for 1 h at 37 °C. After pre-incubation, the mixture was centrifuged at 10,000 rpm for 5 min, and supernatant (0.1 mL) was evaluated for LAAO activity. Venoms, test sample, and solvents alone were used as controls. The anti-LAAO potential of the extract and its phenolic principles was presented as percent inhibition of the enzymatic activity versus dose. ED50, the effective dose that LAAO activity of the venoms was reduced by 50%, was calculated.

[1] = system: hyaluronidase of CR venom; assay: Inhibition of hyaluronidase activity of CR venom (turbidimetric); assay type: biochemical, Calloselasma rhodostoma; conditions: CR venom 250 µg; pre-incubated 30 min at 37 °C; mean ± S.E.M. (n = 2)
Experimental: (§3) Hyaluronidase activity was determined according to the methods of Ferrante and Yingprasertchai et al. with slight modification. CR or NK venom (25-1,000 µg) in PBS (pH 7.4) was incubated with hyaluronic acid (50 μg) in 0.2 M sodium acetate buffer (1 mL, pH 5) that contained 0.15 M NaCl for 25 min at 37 °C. The reaction was stopped by adding 2.5% cetyltrimethylammonium bromide in 2% NaOH (2 mL). The optical density at 400 nm of each sample was read after 30 min with a Shimadzu UV-VIS spectrophotometer UV-160A against blank. Turbidity-reducing activity was expressed as the percentage of the remaining hyaluronic acid, taking the absorbance of a tube to which no enzyme was added as 100%. The venom concentration that produced a reduction in turbidity of ~50% was used in inhibition experiments. […] Blanks containing only the buffer and test sample were run in parallel. The anti-hyaluronidase potential of the extract and its phenolic principles was presented as percent inhibition of the enzymatic activity versus dose. ED50, the effective dose that hyaluronidase activity of the venoms was reduced by 50%, was calculated.

PLA2 of CR venom = assay: Inhibition of PLA2 activity of CR venom (indirect hemolytic assay on agarose-erythrocyte-egg yolk gel plates); assay type: biochemical, Calloselasma rhodostoma; conditions: CR venom 17.1 µg (one MIHD); pre-incubated 1 h at 37 °C; mean ± S.E.M. (n = 2)
Experimental: as §1

LAAO of CR venom = target: T1, LAAO of CR venom (Calloselasma rhodostoma, UniProt P81382); assay: Inhibition of LAAO activity of CR venom (enzyme-coupled assay); assay type: biochemical; conditions: CR venom 50 µg; pre-incubated 1 h at 37 °C; mean ± S.E.M. (n = 2)
T1 construct: from tissue; host or cells: crude snake venom (CR)
Experimental: as §2

[2] = system: hyaluronidase of NK venom; assay: Inhibition of hyaluronidase activity of NK venom (turbidimetric); assay type: biochemical, Naja naja kaouthia; conditions: NK venom 250 µg; pre-incubated 30 min at 37 °C; mean ± S.E.M. (n = 2)
Experimental: as §3

T1 sequence (P81382 19-516): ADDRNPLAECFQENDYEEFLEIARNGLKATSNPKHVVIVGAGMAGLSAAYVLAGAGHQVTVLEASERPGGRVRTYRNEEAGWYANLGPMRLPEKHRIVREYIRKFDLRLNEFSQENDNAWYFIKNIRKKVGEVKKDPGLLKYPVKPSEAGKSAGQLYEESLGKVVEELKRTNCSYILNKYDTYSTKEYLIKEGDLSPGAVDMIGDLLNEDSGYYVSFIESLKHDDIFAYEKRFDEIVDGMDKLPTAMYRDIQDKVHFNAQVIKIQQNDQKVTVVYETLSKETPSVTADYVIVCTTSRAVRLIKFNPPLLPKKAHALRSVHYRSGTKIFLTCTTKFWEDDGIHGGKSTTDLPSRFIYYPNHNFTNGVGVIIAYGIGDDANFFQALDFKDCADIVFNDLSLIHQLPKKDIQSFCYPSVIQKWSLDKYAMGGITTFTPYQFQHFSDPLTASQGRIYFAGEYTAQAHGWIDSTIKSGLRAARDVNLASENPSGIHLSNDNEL

| SMILES | PLA2 (ED50, µg) NK venom (PLA2 of NK venom) [µg] | LAAO (ED50, µg) NK venom (LAAO of NK venom) [µg] | Hyaluronidase (ED50, µg) CR venom [1] [µg] | PLA2 (ED50, µg) CR venom (PLA2 of CR venom) [µg] | LAAO (ED50, µg) CR venom (LAAO of CR venom) [µg] | Hyaluronidase (ED50, µg) NK venom [2] [µg] |
| --- | --- | --- | --- | --- | --- | --- |
| O=C(O)c1cc(O)c(O)c(O)c1 [GA, gallic acid] | 123.5 ± 2.5 | 4.5 ± 2.8 | 16.0 ± 2.5 | 66.0 ± 2.5 | 1.7 ± 3.4 | 14.8 ± 1.4 |
| COC(=O)c1cc(O)c(O)c(O)c1 [MG, methyl gallate] | 108.7 ± 2.0 | 4.4 ± 2.0 | 5.9 ± 2.4 | 42.9 ± 2.3 | 2.3 ± 2.4 | 8.6 ± 2.1 |
| O=C(OC[C@H]1O[C@@H](OC(=O)c2cc(O)c(O)c(O)c2)[C@H](OC(=O)c2cc(O)c(O)c(O)c2)[C@@H](OC(=O)c2cc(O)c(O)c(O)c2)[C@@H]1OC(=O)c1cc(O)c(O)c(O)c1)c1cc(O)c(O)c(O)c1 [PGG, 1,2,3,4,6-penta-O-galloyl-β-D-glucopyranose] | 30.2 ± 2.4 | 2.2 ± 2.0 | 3.4 ± 2.4 | 25.6 ± 1.3 | 0.9 ± 2.4 | 2.6 ± 1.7 |
